Values quoted from earlier work, collected in patent US9114602B2, “Process for making lithographic printing plate” (FUJIFILM Corporation, priority 2011, dated 2015).

Conditions: at 20° C.

SMILES	solubility in water [g/100 mL]
CCC(C)CO (centres unmarked) [2-methyl-1-butanol]	3.0
CC(C)CCO [3-methyl-1-butanol]	2.7
CC(C)C(C)O (centres unmarked) [3-methyl-2-butanol]	5.6
CC(C)CC(C)O (centres unmarked) [4-methyl-2-pentanol]	2.0
CCCCCCOCCO [Ethylene glycol mono-n-hexyl ether, reference compound]	1.0
CCCCCO [Example 1-pentanol, 1-pentanol]	2.7
CCC(O)CC [Example 3-pentanol, 3-pentanol]	5.2
OCc1ccccc1 [benzyl alcohol]	4.0
OCCOc1ccccc1 [ethylene glycol monophenyl ether]	2.7
CC(=O)OC(C)C [isopropyl acetate]	4.3
CC(C)(C)CO [neopentyl alcohol]	3.5

Second part, the compound after the results:

solubility in water [g/100 mL]	SMILES
4.5	CCCC(C)O (centres unmarked) [Example 2-pentanol, 2-pentanol]
4.0	CCCC(C)=O [Example 2-pentanone, 2-pentanone]
1.7	CCC(=O)CC [diethyl ketone]
6.5	CCCCOCCOCCOC(C)=O [diethylene glycol monobutyl ether acetate]
1.6	CCCOC(C)=O [propyl acetate]
4.4	CCCCOCC(C)O (centres unmarked) [propylene glycol mono-n-butyl ether]
